Experimental data published in ChEMBL document CHEMBL1201862, “PubChem BioAssay data set” (2004).
“And” between values parts separate entries of the source, which are not always exact repeats. Identical values can stand only once.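 Cultured in 96-well plates, cells were exposed to test compound for 48 hours across five concentrations. GI50 is the concentration that inhibits growth by half.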 The source made the active and inactive calls. No stated cut-off is given here; in the data, active = GI50 up to about 1.1 µM and inactive = higher.

How the values were obtained:
Test in all cases: DTP human tumour cell line panel, 48 h
786-0 = test system: 786-0
ACHN = test system: ACHN
CAKI-1 = test system: CAKI-1
DLD-1 = test system: DLD-1
K562 = test system: K562
MDA-MB-231 = test system: MDA-MB-231
MDA-MB-435 = test system: MDA-MB-435
NCI-H23 = test system: NCI-H23
NCI-H460 = test system: NCI-H460
SF-268 = test system: SF-268
SK-MEL-2 = test system: SK-MEL-2
SN12C = test system: SN12C
SNB-75 = test system: SNB-75
UO-31 = test system: UO-31
EKVX = test system: EKVX
HCC 2998 = test system: HCC 2998
HL-60 = test system: HL-60
KM12 = test system: KM12
MOLT-4 = test system: MOLT-4
NCI-H226 = test system: NCI-H226

Structure (SMILES)	GI50 (786-0)	GI50 (ACHN)	GI50 (CAKI-1)	GI50 (DLD-1)	GI50 (K562)	GI50 (MDA-MB-231)	GI50 (MDA-MB-435)	GI50 (NCI-H23)	GI50 (NCI-H460)	GI50 (SF-268)	GI50 (SK-MEL-2)	GI50 (SN12C)	GI50 (SNB-75)	GI50 (UO-31)	GI50 (EKVX)	GI50 (HCC 2998)	GI50 (HL-60)	GI50 (KM12)	GI50 (MOLT-4)	GI50 (NCI-H226)
COc1ccc(OC)c(/C=C/[N+](=O)[O-])c1	1.79 µM (inactive) and 1.57 µM (inactive)	1.82 µM (inactive) and 2.21 µM (inactive)	2.85 µM (inactive) and 2.45 µM (inactive)	2.88 µM (inactive)	2.59 µM (inactive) and 2.83 µM (inactive)	1.87 µM (inactive)	2.37 µM (inactive)	4.02 µM (inactive) and 2.41 µM (inactive)	3.24 µM (inactive) and 5.48 µM (inactive)	3.01 µM (inactive) and 4.54 µM (inactive)	2.41 µM (inactive) and 4.62 µM (inactive)	2.44 µM (inactive) and 3.77 µM (inactive)	6.64 µM (inactive) and 4.62 µM (inactive)	1.74 µM (inactive) and 2.77 µM (inactive)						
COc1ccc(NCc2cc(OC)c(OC)c(OC)c2)cc1	583 nM (active)			0.421 µM (active)		0.596 µM (active)	0.0711 µM (active)	973 nM (active)	385 nM (active)	698 nM (active)	466 nM (active)	818 nM (active)			4.74 µM (inactive)	0.362 µM (active)	0.205 µM (active)	0.201 µM (active)	0.493 µM (active)	
CC(CN1CC(=O)NC(=O)C1)N1CC(=O)NC(=O)C1 (stereo not drawn) [RAZOXANE]	98900 nM (inactive)	242 µM (inactive)	109 µM (inactive)	245 µM (inactive)	188 µM (inactive)	171 µM (inactive)	485 µM (inactive)	213000 nM (inactive)	11100 nM (inactive)	299000 nM (inactive)	399000 nM (inactive)	112000 nM (inactive)	306 µM (inactive)	349 µM (inactive)	209 µM (inactive)	339 µM (inactive)	53.1 µM (inactive)	398 µM (inactive)	34.9 µM (inactive)	68.1 µM (inactive)
